Laboratory results as given in patent US20250101338A1, “BIOMASS DERIVED SURFACE-ACTIVE COMPOSITIONS AND PRODUCTS” (Cambridge Glycoscience Ltd, priority 2021, published 2025).

Assays:
Assay type in all cases: physicochemical
[1] = Water in oil emulsion stability test (Example 65); conditions: 0.5 mL water with 2 wt % substance + 1.5 mL sunflower oil, vortex 30 s, visual inspection
Method: 0.5 mL deionized water containing 2 wt % of the stated inventive or comparative compound was added to 1.5 mL commercial, food-grade sunflower oil, in a sample vial. The vials were each agitated with a IKA Vortex mixture for 30 seconds. The vials were left to stand and inspected visually for emulsion quality after 5 minutes, 1 hour, 4 hours and finally 24 h (FIG. 14 and FIG. 15). […] The results also show an unexpected increase in emulsifying performance for the inventive compositions comprising oligosaccharide mixture-derived surface-active agents (such as example 4-6 compositions) compared with those derived from a single monomeric sugar (xylose) alone (such as example 12 and 13 compositions).

[2] = Emulsion formation with different oil-water ratios (Example 66); conditions: water-oil ratio 1:2.5, groundnut oil, 3.0 wt % composition
Method: The ability of inventive surface-active compositions to stabilize emulsions in different mass-ratios of vegetable oil and water was investigated. Mixtures of water, vegetable oil and inventive surface-active composition were prepared as per table below, by adding groundnut oil, water, and surface-active composition in the desired mass ratio. The mixtures were heated at 60 C in a homogenizer (stirring for 10 minutes at 800 rpm, then further homogenized at this speed and ambient temperature for 5 min). The visual appearance of each mixture was acknowledged. The mixtures were then treated by centrifugation at 1500 rpm for 5 mi and the visual appearance was again acknowledged.

[3] = Flash foam generation test (Example 70); conditions: 20 mg in 4 mL deionized water (10 wt % [sic]), 2 mL shaken 30 s in 15 mL tube, duplicate average
Method: 20 mg of each surface-active composition for testing was dissolved in deionized water (4 mL) to give a 10 wt % solution, 2 mL was added to a 15 mL FALCON tube. Each falcon tube was secured in a holder before being vigorously shook for 30 seconds. The initial foam height and structure was noted. The foam height was then noted at 5 min, 10 min, 15 min, 30 min, 45 min, 1 hr and 2 hr after the initial measurement. The experiment was repeated in duplicate. Averaged results are depicted in table 5 and FIG. 11.

[4] = Lipophilic substances solubilization test, lemongrass oil (Example 71); conditions: 2 mL of 5 wt % aqueous solution, stepwise addition of 2.5 μL, duplicate
Method: After each addition, the sample was agitated with a vortex mixture for 60 s and left to stand for 5 min. If no heterogenous phase was observed visually, the oil was said to be fully soluble. If a heterogenous, immiscible biphasic or emulsion was visible, then the saturation limit for that surface-active component was said to have been exceeded. Each surface-active composition was tested in duplicate.

[5] = Aqueous hydrolytic stability by UPLC-MS (Example 73); conditions: 0.5 mg/mL
Method: Determination of aqueous stability of the test compounds was performed using UPLC-MS. A test compound 10 mg/mL stock solution was prepared by dissolving Example 11 composition (N-decyl-N-acetylxylosylamine) (inventive surface-active composition) in DMSO. Buffer solutions, comprised of simple, commercially-available acidic or basic substances in deionized water were prepared at pH 1, pH 3, pH 4, pH 5, pH 6, pH 7, pH 9, pH 11 and pH 13.

[6] = Relative viscosity, gravity flow time (Example 74); conditions: 10 mL of 10 wt % sodium dodecyl sulfate + 0.3 g NaCl + 0.655 mL of 30 wt % test solution, 27° C., triplicate
Method: The time taken for precisely 3 mL of testing mixture to pass out of the […] by gravity was recorded. The test was repeated in triplicate. Averaged results are depicted in FIG. 20 and table 9. It was unexpected that example 11 composition recorded such high viscosity over example 14 composition, which differs by a slightly smaller alkyl chain (octyl instead of decyl).

[7] = Critical micellular concentration determination (Example 78); conditions: deionized water
Method: Stock solutions were prepared of known weight concentration (range spanning 0.005 wt %-5.000 wt %) of inventive surface-active compositions (by solution of the appropriate weight of example composition in deionized water). For reference, the surface tension of deionized water in the absence of a surface-active composition is 73 mN. […] The surface tensions of the solutions at the concentration of the CMC were also noted. Results are shown in table 10 and graphical results are depicted in FIG. 22.

[8] = Aqueous solubility noted at preparation
Method: Solid N-decyl xylosylamine (7.6 g) was suspended in 2-propanol (60 mL) and triethylamine (2 equiv.) then acetic anhydride (1.6 equiv.) was added slowly. Stirring continued at ambient temperature for 10 h. Water (50 mL) was added, and the mixture stirred for 5 min. Dichloromethane (50 mL) was added and the phases separated. The aqueous phase was extracted with additional DCM. The combined organic phase washed with saturated aqueous NH4Cl solution, then the aqueous phase extracted with additional DCM. The combined organic phases were dried over anhydrous magnesium sulfate, filtered, then concentrated under reduced pressure to give a yellow oil. The oil was purified by FCC eluting with MeOH (2-15%) in DCM (120 g normal phase silica cartridge with wet loading). Fractions containing the product were combined and evaporated to dryness to give the desired product (4.1 g, 49%) as a yellow gum. LC-MS (Method A), Rt=1.69 min, [M+H]+=332.2. The gum product can be dissolved in water to form solutions of 50 wt % or greater.
The process was carried out in essentially the same manner as in Example 11 a) step (ii) but using the solid product of Example 11 reaction c) step (i) and the crude product was instead purified by FCC eluting with MeOH (2-13%) in DCM. There were obtained 1.4 g of cream gum product. LC-MS (Method A), Rt=1.87 min, [M+H]^+=360.5.

With `CCCCCCCCCCN(C(C)=O)C1OC[C@@H](O)[C@H](O)[C@H]1O` (stereo partly drawn) [Example 11 composition, N-decyl N-acetyl xylosylamine] the “Time inspected by which the emulsion first appeared dispersed” value [1] was 24 h, the “Visual interpretation of results, after centrifugation” value ([2]; 1500 rpm 5 min) was “Complete phase-separation” and the “Visual interpretation of results, before centrifugation” value ([2]; homogenized at 60 C) was “Emulsion failed to form”. For the same compound, the “Volume of foam after given time” value ([3]; 0 min) was 8.3 cm^3, the “Volume of foam after given time” value ([3]; 5 min) was 4.8 cm^3 and the “Volume of foam after given time” value ([3]; 15 min) was 2.5 cm^3. The “Volume of foam after given time” value ([3]; 30 min) was 2.3 cm^3, the “Volume of foam after given time” value ([3]; 1 h) was 2.0 cm^3 and the “Volume of foam after given time” value ([3]; 2 h) was 2.0 cm^3. For the same compound, the “Maximum volume of lemongrass oil solubilized” value [4] was 8.75 µL, the “Stability During 1-week (daily monitoring) (% of original concentration lost to degradation)” value ([5]; Buffer pH 1, 25° C.) was “(<50%)” and the “Stability During 12-hour Assay (% of original concentration lost to degradation)” value ([5]; Buffer pH 1, 25° C.) was “(<1%) degradation”. The “Stability During 1-week (daily monitoring) (% of original concentration lost to degradation)” value ([5]; Buffer pH 3, 25° C.) was “(<0.1%) degradation”, the “Stability During 12-hour Assay (% of original concentration lost to degradation)” value ([5]; Buffer pH 3, 25° C.) was “(<0.1%) degradation” and the “Stability During 1-week (daily monitoring)” value ([5]; Buffer pH 4, 25° C.) was “Full stability”. For the same compound, the “Stability During 12-hour Assay” value ([5]; Buffer pH 4, 25° C.) was “Full stability”, the “Stability During 1-week (daily monitoring)” value ([5]; Buffer pH 5, 25° C.) was “Full stability” and the “Stability During 12-hour Assay” value ([5]; Buffer pH 5, 25° C.) was “Full stability”. For the same compound, the “Stability During 1-week (daily monitoring)” value ([5]; Buffer pH 6, 25° C.) was “Full stability”, the “Stability During 12-hour Assay” value ([5]; Buffer pH 6, 25° C.) was “Full stability” and the “Stability During 1-week (daily monitoring)” value ([5]; Buffer pH 7, 25° C.) was “Full stability”. For the same compound, the “Stability During 12-hour Assay” value ([5]; Buffer pH 7, 25° C.) was “Full stability”, the “Stability During 1-week (daily monitoring)” value ([5]; Buffer pH 9, 25° C.) was “Full stability” and the “Stability During 12-hour Assay” value ([5]; Buffer pH 9, 25° C.) was “Full stability”. The “Stability During 1-week (daily monitoring) (% of original concentration lost to degradation)” value ([5]; Buffer pH 11, 25° C.) was “(<0.1%) degradation”, the “Stability During 12-hour Assay (% of original concentration lost to degradation)” value ([5]; Buffer pH 11, 25° C.) was “(<0.1%) degradation” and the “Stability During 1-week (daily monitoring) (% of original concentration lost to degradation)” value ([5]; Buffer pH 13, 25° C.) was “(<10%)”. For the same compound, the “Stability During 12-hour Assay (% of original concentration lost to degradation)” value ([5]; Buffer pH 13, 25° C.) was “(<0.1%) degradation”, the “Average time (for 3 mL to pass out of the stripette by gravity)” value [6] was 270.3 s and the “Solution Surface tension at CMC” value [7] was 36 mN. The CMC ([7]; from surface tension at 0.005-5.000 wt %) was 0.04 wt %, the “Concentration of solutions formed in water” value ([8]; gum product dissolved in water) was no less than 50 wt % and the “Aqueous solubility (in words)” value ([8]; water, room temperature) was “excellent aqueous solubility”.
